Experimental data taken from patent US4785008A, “N-substituted 2-amino-thiazoles, process for their preparation and their therapeutic application” (Laboratoires Chauvin-Blache, priority 1985, dated 1988).

Assays:
[1] = tested on: prostanoid pathways (thromboxane B2) in rabbit platelets; test: Inhibition of the metabolism of [14C]arachidonate in rabbit platelets (disappearance of TXB2); assay type: cell-based; settings: Oryctolagus cuniculus, Platelet
Procedure: 1.2--Inhibition of the metabolism of [^14 C]arachidonate in rabbit platelets
12 ml of blood are withdrawn nitracardially into ACD (anticoagulant consisting of an aqueous solution containing 0.27 g of citric acid, 0.5 g of disodium citrate and 0.02 g of glucose for 20 ml of water) in a proportion of 1 volume of ACD for 6 volumes of blood. The mixture is centrifuged (10 minutes, 200×g, 20° C.), and the supernatent (PRP) collected and centrifuged again (15 minutes, 1500×g, 20° C.). The platelet pellet is washed in buffer I [NaCl, 8 g/l; Tris, 1.21 g/l; KCl, 0.2 g/l; gelatin, 2.5 g/l; this mixture is heated to 90° C. to dissolve the gelatin, and then glucose, 1 g/l, and ethylene glycol bis(β-aminoethyl ether) N,N,N',N'-tetraacetic acid or EGTA, 0.075 g/l, are added]. The suspension is centrifuged (15 minutes, 1500×g, 20° C.) and the pellet taken up in buffer II (NaCl, 8 g/l; Tris, 1.21 g/l; KCl, 0.2 g/l; CaCl2, 0.145 g/l; MgCl2, 0.2 g/l; gelatin, 2.5 g/l; the mixture is brought to 90° C., glucose, 1 g/l, is added and the pH is adjusted to 7.4 with 0.1N HCl).
The platelet suspension (0.4 ml/tube) is preincubated for 10 minutes at 37° C., either with 10 μl of DMSO (control), or with varied concentrations of test compounds dissolved in 10 μl of DMSO.
The incubation is carried out in the presence of [^14 C]arachidonate (1 μg, 0.2 μCi) distributed in 0.1 ml of buffer II, and the incubation is then blocked after 15 minutes with 50 μl of citric acid and 250 μl of saturated NaCl.
After extraction with ethyl acetate, the metabolites of [^14 C]arachidonate are separated by thin layer chromatography and quantified using a radio-scanner.
The percentage inhibition of the prostanoid pathways is estimated by measuring the disappearance of thromboxane B2 (TXB2) in terms of the concentration of each compound.
Results corresponding to 50 μM and 100 μM of compounds of formula I are given by way of example in Table II.

[2] = tested on: lipoxygenase of circulating human leukocytes (PMNs); test: Inhibition of the lipoxygenase of circulating human leukocytes (PMNs), by radioimmunoassay of LTC4; assay type: cell-based; settings: Leukocyte, 8 min, calcium ionophore A23187 (0.25 μM), 8 minutes at 37° C.
Procedure: 1.1--Inhibition of the lipoxygenase of circulating human leukocytes (PMNs), by radioimmunoassay of LTC4 Methods Heparinized human blood is sedimented for 1 hour at 37° C. in sterile saline solution containing 4.5% of Dextran T 500. The upper, leukocyte-rich phase, is collected, deposited on Ficoll-Paque (7:3 v/v) and then centrifuged (20 minutes, 400×g, 4° C.). The centrifugation pellet is treated with 0.75% strength NH4 Cl to lyse the red cells. After centrifugation (20 minutes, 400×g, 4° C.), supernatent is removed and the pellet is resuspended in Dulbecco's PBS buffer containing 1 mM calcium chloride. […] The incubation is blocked by adding one volume of ice-cold water, and the suspension is centrifuged (15 minutes, 1500×g, 4° C.). Aliquots of the supernatent are then subjected to radioimmunoassay (New England Nuclear Kit). The percentage inhibition of the 5-lipoxygenase pathway is measured in terms of the concentration of each compound. From these curves, the concentration which 50% inhibits LTC4 tracer formation (IC50) is deduced.

[3] = tested on: protein influx into the anterior chamber of the eye; test: Inhibition of protein influx into the anterior chamber of the eye after corneal paracentesis; assay type: in vivo, albino New Zealand rabbits; settings: rabbit eye
Procedure: Anti-inflammatory activity measured by the inhibition of protein influx into the anterior chamber of the eye after corneal paracentesis. […] The effect of various concentrations of each compound is measured on 6 eyes of albino New Zealand rabbits.

[4] = Acute toxicity (LD50) in rats; settings: rat, in vivo, 14 days of observation, with 5% confidence interval
Procedure: The rats used are of Wistar strain of average weight 150 g.
The LD50 is determined after 14 days of observation.
The results below give the LD50 values for the compound 3 of the invention, together with the 5% confidence interval.

[5] = tested on: leukocyte infiltration into the aqueous humour; settings: recent experimental studies; cited from earlier work

SMILES: Oc1ccccc1Nc1nccs1 [Compound 1]
- inhibition at 50 µM [1]: 34%
- inhibition at 100 µM [1]: 91%
- IC50 [2]: 1200 nM

SMILES: Oc1ccc(Cl)cc1Nc1nccs1 [Compound 2]
- inhibition at 50 µM [1]: 100%
- inhibition at 100 µM [1]: 100%
- IC50 [2]: 300 nM

SMILES: Cc1ccc(Nc2nccs2)c(O)c1.Cl [Compound 3, 2-(2-hydroxy-4-methylphenyl)aminothiazole hydrochloride]
- Inhibition (%) of protein influx into the anterior chamber of the eye after corneal paracentesis ([3]; 0.1 mg/100 ml): 20%
- Inhibition (%) of protein influx into the anterior chamber of the eye after corneal paracentesis ([3]; 0.5 mg/100 ml): 35%
- Inhibition (%) of protein influx into the anterior chamber of the eye after corneal paracentesis ([3]; 1 mg/100 ml): 50%
- inhibition at 50 µM [1]: 100%
- inhibition at 100 µM [1]: 100%
- IC50 [2]: 330 nM
- LD50 at 336 h ([4]; iv, female rat): 51 ± 2 mg/kg
- LD50 at 336 h ([4]; iv, male rat): 51 ± 2 mg/kg
- LD50 at 336 h ([4]; po, female rat): 2350 ± 90 mg/kg
- LD50 at 336 h ([4]; po, male rat): 2950 ± 96 mg/kg

SMILES: Cc1ccc(O)c(Nc2nccs2)c1 [Compound 4]
- inhibition at 50 µM [1]: 68%
- IC50 [2]: 250 nM

SMILES: CC(C)(C)c1ccc(Nc2nccs2)c(O)c1 [Compound 5]
- inhibition at 50 µM [1]: 76%
- IC50 [2]: 1600 nM

SMILES: Cc1cc(C)c(O)c(Nc2nccs2)c1 [Compound 6]
- inhibition at 50 µM [1]: 70%
- IC50 [2]: 200 nM

SMILES: Oc1cccnc1Nc1nccs1 [Compound 7]
- inhibition at 50 µM [1]: 36%
- inhibition at 100 µM [1]: 36%

SMILES: COc1ccc2c(c1)c(CC(=O)O)c(C)n2C(=O)c1ccc(Cl)cc1 [Indomethacin]
- leukocyte infiltration into the aqueous humour [5]: increases the leukocyte infiltration into the aqueous humour
